Target: human GSK3β (Homo sapiens, UniProt P49841)
Test: Screening for GSK3 inhibitory activity using a cell-free assay
Format: biochemical
Details: read-out: IC50 with respect to GSK3
Summary of the method: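 Radiometric cell-free assay with recombinant human GSK3β phosphorylating a biotinylated peptide substrate for 3 h. Reactions were stopped with 50 μM ATP/20 mM EDTA and captured on streptavidin plates. Incorporated radiolabel was counted by scintillation and plotted against compound concentration.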

Sequence of human GSK3β (P49841 whole entry): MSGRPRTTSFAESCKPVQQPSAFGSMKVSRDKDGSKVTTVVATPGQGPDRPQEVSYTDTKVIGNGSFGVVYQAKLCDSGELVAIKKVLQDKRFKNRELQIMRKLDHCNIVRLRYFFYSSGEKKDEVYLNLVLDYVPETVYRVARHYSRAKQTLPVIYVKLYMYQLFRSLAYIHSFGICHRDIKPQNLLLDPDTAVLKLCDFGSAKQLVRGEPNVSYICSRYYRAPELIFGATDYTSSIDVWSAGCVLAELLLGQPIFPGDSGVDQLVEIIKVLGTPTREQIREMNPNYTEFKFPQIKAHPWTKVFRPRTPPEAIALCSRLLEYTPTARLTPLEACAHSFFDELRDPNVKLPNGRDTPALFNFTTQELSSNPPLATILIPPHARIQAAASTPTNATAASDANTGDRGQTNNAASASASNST

Row | SMILES | IC50
1 | O=[N+]([O-])c1ccc(NCCNc2nccc(NCc3cc(Cl)cc(Cl)c3)n2)nc1 [[(3,5-dichlorophenyl)methyl][2-({2-[(5-nitro(2-pyridyl))amino]ethyl}amino)pyrimidin-4-yl]amine] | ≤ 10 µM
2 | N#Cc1ccc(-c2nc(NCCNc3ccc([N+](=O)[O-])cn3)ncc2[N+](=O)[O-])cc1 [4-[5-nitro-2-({2-[(5-nitro(2-pyridyl))amino]ethyl}amino)pyrimidin-4-yl]benzenecarbonitrile] | ≤ 10 µM
3 | CCc1ccc(-c2nc(NCCNc3ccc(C#N)cn3)ccc2N2CCN(C)CC2=O)cc1 [6-[(2-{[6-(4-ethylphenyl)-5-(4-methyl-2-oxo-1-piperazinyl)-2-pyridinyl]amino}ethyl)amino]nicotinonitrile] | ≤ 10 µM
4 | O=[N+]([O-])c1ccc(NCCNc2ncc(-c3ccccc3)c(-c3ccc(O)cc3)n2)nc1 [4-[2-({2-[(5-nitro(2-pyridyl))amino]ethyl}amino)-5-phenylpyrimidin-4-yl]phenol] | ≤ 10 µM
5 | NC(=O)c1ccc(-c2ccnc(NCCNc3nc4ccccc4s3)n2)cc1 | ≤ 10 µM
6 | CCOC(=O)c1cnc(NCCNc2ccc(C(=O)OC(C)(C)C)cn2)nc1-c1ccc(C#N)cc1 [tert-butyl 6-[(2-{[4-(4-cyanophenyl)-5-(ethoxycarbonyl)pyrimidin-2-yl]amino}ethyl)amino]pyridine-3-carboxylate] | ≤ 10 µM
7 | O=[N+]([O-])c1ccc(NCCNc2nccc(-c3ccc(O)cc3)n2)nc1 [4-[2-({2-[(5-nitro-2-pyridyl)-amino]ethyl}amino)pyrimidin-4-yl]phenol] | ≤ 10 µM

More lines, now with the values ahead:

Row | IC50 | SMILES
8 | ≤ 1 µM | N#Cc1ccc(-c2nc(NCCNc3ccc([N+](=O)[O-])cn3)nc(-c3ccc(C#N)cc3)c2C(=O)O)cc1 [4,6-bis(4-cyanophenyl)-2-({2-[(5-nitro(2-pyridyl))amino]ethyl}-amino)pyrimidine-5-carboxylic acid]
9 | ≤ 1 µM | O=[N+]([O-])c1ccc(NCCNc2ncc(-c3ncc[nH]3)c(-c3ccc(C(F)(F)F)cc3)n2)nc1 [{5-imidazol-2-yl-4-[4-(trifluoromethyl)phenyl]pyrimidin-2-yl}{2-[(5-nitro(2-pyridyl))amino]ethyl}amine]
10 | ≤ 1 µM | CN(C)CCNC(=O)c1cnc(NCCNc2ccc([N+](=O)[O-])cn2)nc1-c1ccc(C#N)cc1 [N-[2-(dimethylamino)ethyl][4-(4-cyanophenyl)-2-({2-[(5-nitro(2-pyridyl))-amino]ethyl}amino)pyrimidin-5-yl]carboxamide]
11 | ≤ 1 µM | O=[N+]([O-])c1ccc(NCCNc2ncc(-c3ncc[nH]3)c(-c3ccc(Cl)cc3)n2)nc1 [[4-(4-chlorophenyl)-5-imidazol-2-ylpyrimidin-2-yl]{2-[(5-nitro(2-pyridyl))amino]ethyl}amine]
12 | ≤ 1 µM | CN(C)CCOC(=O)c1cnc(NCCNc2ccc([N+](=O)[O-])c(N)n2)nc1-c1ccc(Cl)cc1Cl [2-(dimethylamino)ethyl 2-({2-[(6-amino-5-nitro(2-pyridyl))amino]ethyl}amino)-4-(2,4-dichlorophenyl)pyrimidine-5-carboxylate]
13 | ≤ 1 µM | CCOC(=O)c1cnc(NCCNc2ccc([N+](=O)[O-])cn2)nc1-c1ccc(N2CCOCC2)nc1 [ethyl 4-(6-morpholin-4-yl(3-pyridyl))-2-({2-[(5-nitro(2-pyridyl))amino]-ethyl}amino)pyrimidine-5-carboxylate]
14 | ≤ 1 µM | Cc1cn(-c2cnc(NCCNc3ccc([N+](=O)[O-])cn3)nc2-c2ccc(Cl)cc2Cl)c(C)n1 [[4-(2,4-dichlorophenyl)-5-(2,4-dimethylimidazolyl)pyrimidin-2-yl]{2-[(5-nitro(2-pyridyl))amino]ethyl}amine]
15 | ≤ 1 µM | Nc1nc(NCCNc2ncc(-c3ncc[nH]3)c(-c3ccc(Br)cc3Cl)n2)ccc1[N+](=O)[O-] [{2-[(6-amino-5-nitro(2-pyridyl))amino]ethyl}[4-(4-bromo-2-chlorophenyl)-5-imidazol-2-ylpyrimidin-2-yl]amine]

— US7425557B2, “Inhibitors of glycogen synthase kinase 3” (Novartis Vaccines and Diagnostics, Inc., priority 1998, dated 2008)
